SMILES strings stand for the structures. Several values for one entry are separate records, joined by “and”; a condition that tells them apart may be missing. Equal values may be shown once. Inconclusive results and toxic doses are left out.

T/C data for 14 compounds are collected here from PubChem BioAssay AID328 (DTP/NCI, 2004).

In this assay the test system is BDF1 mice, P388 leukemia ip, median survival T/C. The experiment in a line: NCI In Vivo Anticancer Drug Screen. Data for tumor model P388 Leukemia (intraperitoneal) in B6D2F1 (BDF1) mice. Conditions: endpoint: median survival time, higher = longer survival. An outline of the steps:
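Vehicle-dosed animals serve as the reference; survival of compound-dosed, tumour-implanted mice is divided by it.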

[1] abbreviates: dose: 100.0 mg/kg/injection, schedule: Q01DX009 (ip), vehicle: saline.
[2] abbreviates: dose: 100.0 mg/kg/injection, schedule: Q04DX003 (ip), vehicle: saline.
[3] abbreviates: dose: 200.0 mg/kg/injection, schedule: Q04DX003 (ip), vehicle: saline.
The mark [4] stands for this setting: dose: 400.0 mg/kg/injection, schedule: Q04DX003 (ip), vehicle: saline.
Setting [5] is: dose: 100.0 mg/kg/injection, schedule: Q04DX003 (ip), vehicle: saline with Tween-80.
The mark [6] stands for this setting: dose: 200.0 mg/kg/injection, schedule: Q04DX003 (ip), vehicle: saline with Tween-80.
Where [7] appears, read: dose: 400.0 mg/kg/injection, schedule: Q04DX003 (ip), vehicle: saline with Tween-80.
Where [8] appears, read: dose: 12.5 mg/kg/injection, schedule: Q01DX009 (ip), vehicle: Klucel (hydroxypropylcellulose) (HPC).
Where [9] appears, read: dose: 25.0 mg/kg/injection, schedule: Q01DX009 (ip), vehicle: Klucel (hydroxypropylcellulose) (HPC).
[10] abbreviates: dose: 100.0 mg/kg/injection, schedule: Q01DX009 (ip), vehicle: Klucel (hydroxypropylcellulose) (HPC).

`COC(=O)C(N)CSC` (centres undefined): the T/C by setting is: under setting [1], 103 % of control; under setting [2], 113 % of control; (dose: 200.0 mg/kg/injection, schedule: Q01DX009 (ip), vehicle: saline) 106 % of control; under setting [3], 90 % of control; (dose: 400.0 mg/kg/injection, schedule: Q01DX009 (ip), vehicle: saline) 106 % of control; under setting [4], 104 % of control.
On to `CCCCSc1ncnc2c1ncn2C1CCCCO1` (centres undefined), for which the T/C by setting is: (dose: 100.0 mg/kg/injection, schedule: Q01DX009 (ip), vehicle: saline sonified) 90 % of control; under setting [5], 87 % of control; (dose: 200.0 mg/kg/injection, schedule: Q01DX009 (ip), vehicle: saline sonified) 122 % of control; under setting [6], 100 % of control; (dose: 400.0 mg/kg/injection, schedule: Q01DX009 (ip), vehicle: saline sonified) 100 % of control; under setting [7], 100 % of control.
In the case of `CN(N=O)C(=O)NC(N)=O`, the T/C reads like this: (dose: 1.5 mg/kg/injection, schedule: Q01DX009 (ip), vehicle: saline) 99 % of control; (dose: 2.3 mg/kg/injection, schedule: Q01DX009 (ip), vehicle: saline) 115 % of control; (dose: 5.4 mg/kg/injection, schedule: Q01DX009 (ip), vehicle: saline) 152 % of control; (dose: 11.0 mg/kg/injection, schedule: Q01DX009 (ip), vehicle: Klucel (hydroxypropylcellulose) (HPC)) 161 % of control; (dose: 12.0 mg/kg/injection, schedule: Q04DX003 (ip), vehicle: Klucel (hydroxypropylcellulose) (HPC)) 118 % of control; under setting [8], 155 % of control. Further, the T/C is 165 % of control and 174 % of control (dose: 12.5 mg/kg/injection, schedule: Q01DX009 (ip), vehicle: saline); 186 % of control (dose: 16.0 mg/kg/injection, schedule: Q01DX009 (ip), vehicle: Klucel (hydroxypropylcellulose) (HPC)); 250 % of control and 161 % of control (dose: 16.5 mg/kg/injection, schedule: Q01DX009 (ip), vehicle: Klucel (hydroxypropylcellulose) (HPC)); 170 % of control (dose: 18.0 mg/kg/injection, schedule: Q01DX009 (ip), vehicle: saline); 122 % of control (dose: 22.0 mg/kg/injection, schedule: Q04DX003 (ip), vehicle: Klucel (hydroxypropylcellulose) (HPC)); 159 % of control and 207 % of control under setting [9]. For the same compound, the T/C (dose: 37.5 mg/kg/injection, schedule: Q01DX009 (ip), vehicle: Klucel (hydroxypropylcellulose) (HPC)) was 100 % of control and 105 % of control; the T/C (dose: 50.0 mg/kg/injection, schedule: Q01DX009 (ip), vehicle: saline) is 105 % of control; the T/C (dose: 50.0 mg/kg/injection, schedule: Q04DX003 (ip), vehicle: Klucel (hydroxypropylcellulose) (HPC)) is 200 % of control; the T/C (dose: 75.0 mg/kg/injection, schedule: Q04DX003 (ip), vehicle: Klucel (hydroxypropylcellulose) (HPC)) was 122 % of control.
Regarding `CCCCC(=O)NN`, the T/C reads like this: (dose: 12.5 mg/kg/injection, schedule: Q04DX003 (ip), vehicle: saline with Tween-80) 99 % of control; (dose: 25.0 mg/kg/injection, schedule: Q04DX003 (ip), vehicle: saline with Tween-80) 103 % of control; (dose: 50.0 mg/kg/injection, schedule: Q04DX003 (ip), vehicle: saline with Tween-80) 110 % of control; under setting [5], 100 % of control; under setting [6], 91 % of control.
For `Cc1nc(N)c2nc(SCc3ccc(Cl)cc3)c(N)nc2n1`, the T/C is, setting by setting: under setting [6], 86 % of control; under setting [7], 97 % of control.
`CC(=O)OC/C(=N\Nc1ccc([N+](=O)[O-])cc1[N+](=O)[O-])c1ccccc1`: the T/C (dose: 3.13 mg/kg/injection, schedule: Q01DX001 (ip), vehicle: saline with Tween-80) is 104 % of control; the T/C (dose: 6.25 mg/kg/injection, schedule: Q01DX001 (ip), vehicle: saline with Tween-80) was 100 % of control; the T/C (dose: 12.5 mg/kg/injection, schedule: Q01DX001 (ip), vehicle: saline with Tween-80) is 95 % of control.
For `COC1C(=[N+]=[N-])C(=O)NC(=O)N1C` (centres undefined), the T/C (dose: 12.5 mg/kg/injection, schedule: Q04DX003 (ip), vehicle: water) is 120 % of control.
On to `COc1cc2cc(c1Cl)N(C)C(=O)/C=C/C1(C)OC1C(C)C1CC(O)(NC(=O)O1)C(OC)C=C/C=C(\C)C2` (centres undefined), for which the T/C by setting is: (dose: 0.2 micrograms/kg/injection, schedule: Q01DX009 (ip), vehicle: saline + alcohol) 90 % of control; (dose: 0.4 micrograms/kg/injection, schedule: Q01DX009 (ip), vehicle: saline + alcohol) 90 % of control; (dose: 0.8 micrograms/kg/injection, schedule: Q01DX009 (ip), vehicle: saline + alcohol) 90 % of control; (dose: 1.6 micrograms/kg/injection, schedule: Q01DX009 (ip), vehicle: saline + alcohol) 90 % of control; (dose: 3.1 micrograms/kg/injection, schedule: Q01DX009 (ip), vehicle: saline + alcohol) 90 % of control; (dose: 100.0 micrograms/kg/injection, schedule: Q01DX009 (ip), vehicle: saline + alcohol) 110 % of control.
Take `COc1cc2oc(-c3ccc(O)cc3O)c(CC=C(C)C)c(=O)c2c(O)c1/C=C/C(C)C`: the T/C is 115 % of control (dose: 4.1 mg/kg/injection, schedule: Q01DX009 (ip), vehicle: Klucel (hydroxypropylcellulose) (HPC)); 106 % of control (dose: 6.25 mg/kg/injection, schedule: Q01DX009 (ip), vehicle: Klucel (hydroxypropylcellulose) (HPC)); 110 % of control (dose: 9.3 mg/kg/injection, schedule: Q01DX009 (ip), vehicle: Klucel (hydroxypropylcellulose) (HPC)); 116 % of control under setting [8]; 98 % of control under setting [9]; 91 % of control (dose: 50.0 mg/kg/injection, schedule: Q01DX009 (ip), vehicle: Klucel (hydroxypropylcellulose) (HPC)). Further, under setting [10], the T/C is 94 % of control.
For `CC1=CC(=O)OC(C)(C)C1`, the T/C runs as follows: under setting [2], 100 % of control; under setting [3], 100 % of control; under setting [4], 100 % of control.
On to `CCOC(=O)C1CCC(C(=O)OCC)N1c1ccc(C=O)cc1` (centres undefined), for which the T/C under setting [10] is 122 % of control; the T/C (dose: 100.0 mg/kg/injection, schedule: Q04DX003 (ip), vehicle: Klucel (hydroxypropylcellulose) (HPC)) was 105 % of control; the T/C (dose: 200.0 mg/kg/injection, schedule: Q01DX009 (ip), vehicle: Klucel (hydroxypropylcellulose) (HPC)) was 105 % of control; the T/C (dose: 200.0 mg/kg/injection, schedule: Q04DX003 (ip), vehicle: Klucel (hydroxypropylcellulose) (HPC)) was 100 % of control; the T/C (dose: 400.0 mg/kg/injection, schedule: Q01DX009 (ip), vehicle: Klucel (hydroxypropylcellulose) (HPC)) was 122 % of control; the T/C (dose: 400.0 mg/kg/injection, schedule: Q04DX003 (ip), vehicle: Klucel (hydroxypropylcellulose) (HPC)) was 100 % of control.
As to `COC(=O)CC1(O)C=CC(=O)C=C1`, the T/C (dose: 2.0 mg/kg/injection, schedule: Q01DX009 (ip), vehicle: saline) is 165 % of control; the T/C (dose: 5.0 mg/kg/injection, schedule: Q01DX009 (ip), vehicle: saline) is 114 % of control; the T/C (dose: 10.0 mg/kg/injection, schedule: Q01DX009 (ip), vehicle: saline) was 116 % of control; the T/C (dose: 25.0 mg/kg/injection, schedule: Q01DX009 (ip), vehicle: saline) was 153 % of control.
`CCCN(Cc1ccc(CN(CCC)C(=O)C(Cl)Cl)cc1)C(=O)C(Cl)Cl`: the T/C under setting [5] was 93 % of control, the T/C under setting [6] is 95 % of control and the T/C under setting [7] was 88 % of control.
Regarding `CCNc1nncs1`, the T/C reads like this: (dose: 30.0 mg/kg/injection, schedule: Q01DX009 (ip), vehicle: saline) 116 % of control; (dose: 38.0 mg/kg/injection, schedule: Q04DX003 (ip), vehicle: saline with Tween-80) 100 % of control; (dose: 44.0 mg/kg/injection, schedule: Q01DX009 (ip), vehicle: saline) 114 % of control; (dose: 58.0 mg/kg/injection, schedule: Q04DX003 (ip), vehicle: saline with Tween-80) 100 % of control; (dose: 88.0 mg/kg/injection, schedule: Q04DX003 (ip), vehicle: saline with Tween-80) 108 % of control; under setting [1], 150 % of control and 168 % of control. Further, the T/C was 86 % of control under setting [2]; 105 % of control (dose: 150.0 mg/kg/injection, schedule: Q01DX009 (ip), vehicle: saline); 165 % of control under setting [6]; 95 % of control (dose: 225.0 mg/kg/injection, schedule: Q01DX009 (ip), vehicle: saline); 196 % of control (dose: 300.0 mg/kg/injection, schedule: Q04DX003 (ip), vehicle: saline with Tween-80).
